Patent US20220257595A1, “MACITENTAN FOR USE IN TREATING PORTOPULMONARY HYPERTENSION” (ACTELION PHARMACEUTICALS LTD, priority 2019, published 2022)
Entries after “also recorded” stand apart in the source; their conditions may differ.

Columns and labels:
patients with PoPH = assay: PORTICO: right heart catheterization hemodynamics at rest (PVR, mRAP, mPAP, cardiac index, TPR, SVO2, PAWP/LVEDP); type: in vivo, human
Description: This study was designed as a randomized, double-blind (DB), placebo-controlled, prospective, multicenter, parallel group Phase 4 study assessing the efficacy and safety of macitentan in PoPH. The study design included an OL period following DB End of Treatment (EOT), the details of which are included below. The study design required approximately 84 adult patients with PoPH to be randomized (1:1) to receive either macitentan 10 mg, or matching placebo, once daily (o.d.) orally. Subject allocation to treatment groups was stratified by background PAH specific therapy receipt (yes/no). Stratification by region of enrollment was also performed as the number of enrolled patients per center was expected to be low, and variation in total patient numbers on a country-to-country level was expected. Based on an attrition rate of 10%, it was expected to have 76 evaluable patients at Week 12/End of Treatment (double-blind) (EOT-DB). Subjects were required to have a confirmed diagnosis of PoPH with a PVR of ≥4 Wood units (WU; ≥320 dyn·s·cm^−5) at enrollment but not have severe hepatic impairment (defined as Child-Pugh Class C or Model for End-Stage Liver Disease (MELD) score ≥19). Subjects were required to have 6-minute walk distance (6MWD) ≥50 m at enrollment but they could belong to any WHO FC. Patients were randomized at 36 sites in seven countries. The core study comprised the following periods:
The primary efficacy endpoint was: • Relative change from baseline to Week 12 in PVR, expressed as ratio of Week 12 to baseline PVR (Week 12 PVR divided by baseline PVR).
(i) Hemodynamic measurements—right heart catheterization: Invasive cardiac hemodynamic variables were measured according to the RHC guidelines at Baseline (Visit 1/Screening) and Week 12, or at permanent discontinuation of DB study treatment if prior to Week 12 (at the investigator's discretion). The thermodilution technique was used to measure cardiac output (CO). For each patient, a maximum of two RHC procedures were performed during the study. The following variables were measured: Heart rate (HR), PAWP or LVEDP (if PAWP is not available), mRAP, systolic/diastolic/mean pulmonary arterial pressure (PAP), CO, SVO2. PVR was calculated at Visit 1/Screening. The following hemodynamic variables were calculated for analysis purposes: PVR, TPR, cardiac index.
The primary efficacy endpoint is: • Relative change from baseline to Week 12 in PVR, expressed as ratio of Week 12 to baseline PVR (Week 12 PVR divided by baseline PVR). • Calculated PVR was used for the efficacy analyses.
The primary analysis was performed on the FAS and using calculated PVR. PVR was summarized by time point and treatment group using descriptive statistics. Ratio of Week 12 to baseline was summarized using geometric means and coefficients of variation (CVs). The ratio of Week 12 to baseline PVR was log-transformed (base e) and analyzed using ANCOVA with factors for treatment group (macitentan versus placebo), background PAH-specific therapy at baseline (Yes/No as per IXRS, randomization stratification factor), region (Europe/North America/Latin America as per IXRS, randomization stratification factor) and a covariate for baseline log-transformed PVR. The treatment group difference (on log scale) and its 95% confidence interval (2-sided) were estimated based on the model. The geometric mean ratio (macitentan versus placebo) and its 95% confidence interval (2-sided) were obtained by exponentiation. […] The log transformation for PVR is justified by the fact that ratios versus baseline follow a normal distribution more closely after a log transformation. In addition, mean absolute changes from baseline on log scale can be translated into (geometric) mean ratios by exponentiation.
A sensitivity analysis was performed applying main ANCOVA analysis without the stratification factors (background PAH-specific therapy at baseline and region). […]

[1] = tested on: endothelin A and B receptors; conditions: nonclinical in vivo studies; cited from earlier work
[2] = 10 mg o.d. oral, DB period, FAS with imputation, n=43
[3] = 10 mg o.d., FAS with imputation, n=43
[4] = Week 12 vs baseline, macitentan group
[5] = change to Week 12, ANCOVA, FAS, listed as Macitentan
[6] = patients receiving macitentan, FAS no imputation

**Q.** What does the source list for `CCCNS(=O)(=O)Nc1ncnc(OCCOc2ncc(Br)cn2)c1-c1ccc(Br)cc1` [macitentan, N-[5-(4-Bromophenyl)-6-[2-[(5-bromo-2-pyrimidinyl)oxy]ethoxy]-4-pyrimidinyl]-N′-propylsulfamide]?
**A.** PVR at Week 12, mean (patients with PoPH; [2]): 350.3 dyn.sec/cm^5; PVR at Week 12, median (patients with PoPH; [2]): 328.6 dyn.sec/cm^5; Mean (±SD) decrease in PVR from baseline to Week 12 (patients with PoPH; 10 mg o.d., FAS): 202.1 (±123.56) dyn·sec/cm^5; Change from baseline to Week 12 in PVR, mean (patients with PoPH; [3]): −202.1 dyn.sec/cm^5; Change from baseline to Week 12 in PVR, median (patients with PoPH; [3]): −179.9 dyn.sec/cm^5; Ratio of Week 12 to baseline PVR, geometric mean (95% CLs) (patients with PoPH; [3]): 0.63 (0.58, 0.67); Ratio of baseline PVR at Week 12, median (patients with PoPH; [3]): 0.60; Ratio of Week 12 to baseline PVR, geometric mean (95% CLs) (patients with PoPH; 10 mg o.d., FAS with imputation, n=43, listed as Macitentan): 0.63; LS mean difference Macitentan 10 mg-Placebo, log(ratio of baseline PVR at Week 12) (patients with PoPH; ANCOVA, FAS): −0.43; LS mean of log(ratio of baseline PVR at Week 12) (patients with PoPH; ANCOVA, FAS, macitentan group): −0.41; Model-adjusted geometric mean of ratio of baseline PVR at Week 12 (patients with PoPH; ANCOVA, FAS, macitentan group): 0.67; SVO2 at Week 12, mean (patients with PoPH; FAS with imputation, n=41): 70.3%; SVO2 change from baseline to Week 12, mean (patients with PoPH; FAS with imputation, n=41): 1.1%; mRAP at Week 12, mean (patients with PoPH; FAS with imputation, n=42): 9.0 mmHg; mRAP change from baseline to Week 12, mean (patients with PoPH; FAS with imputation, n=42): 1.6 mmHg; Cardiac index at Week 12, mean (patients with PoPH; FAS with imputation, n=43): 3.7 L/min/m^2; Cardiac index change from baseline to Week 12, mean (patients with PoPH; FAS with imputation, n=43): 0.6 L/min/m^2; TPR at Week 12, mean (patients with PoPH; FAS with imputation, n=43): 489.4 dyn · sec/cm^5; TPR change from baseline to Week 12, mean (patients with PoPH; FAS with imputation, n=43): −199.8 dyn · sec/cm^5; mPAP Change from baseline to Week 12, Mean (patients with PoPH; FAS with imputation, n=43): −6.4 mmHg; mPAP at Week 12, mean (patients with PoPH; FAS with imputation, n=43): 40.0 mmHg; Effect on PVR across demographic and baseline disease subgroups (patients with PoPH; FAS, subgroup analyses, Week 12): consistent with the overall treatment effect, with no indication of heterogeneity; Geometric mean ratio of macitentan versus placebo (95% CLs), PVR, slope imputation (patients with PoPH; Week 12, ANCOVA, FAS N=85): 0.65 (0.59, 0.72),; Model-adjusted geometric mean ratio of PVR (macitentan over placebo), primary analysis (patients with PoPH; Week 12, ANCOVA, FAS N=85): 0.65 (0.59, 0.72), p < 0.0001; Difference in LS means macitentan-placebo, change from baseline in PVR (no log-transformation) (patients with PoPH; Week 12, ANCOVA, FAS N=85 (Table 10)): −180.71 dyn.sec/cm^5; Model-adjusted geometric mean ratio of PVR (macitentan over placebo), primary analysis (patients with PoPH; Week 12, ANCOVA, FAS N=85, listed as Macitentan): 0.65; Treatment effect: geometric mean ratio of PVR ratio (macitentan vs placebo) (patients with PoPH; Week 12, FAS with imputation, descriptive (Table 8)): 0.64; LS Mean difference (macitentan-placebo), ANCOVA (Absolute Change) of PVR (patients with PoPH; Week 12, N=85 (Table 12)): −180.71 meters; Reduction in PVR vs placebo (patients with PoPH; Week 12, from adjusted geometric mean ratio): 35%; Patients with an increase in PVR (patients with PoPH; [4]): 1 patient; Patients with no change in PVR (patients with PoPH; [4]): 1 patient; SVO2: difference in LS means macitentan-placebo (patients with PoPH; change to Week 12, ANCOVA, FAS): No clinically significant effect; also recorded: No clinically relevant effect; mRAP: difference in LS means macitentan-placebo (patients with PoPH; change to Week 12, ANCOVA, FAS): No clinically significant effect; also recorded: No clinically relevant effect; Cardiac index: difference in LS means macitentan-placebo (patients with PoPH; [5]): 0.52 L/min/m^2; SVO2: difference in LS means macitentan-placebo (patients with PoPH; [5]): 0.03%; TPR: difference in LS means macitentan-placebo (patients with PoPH; [5]): −171.48 dyn · sec/cm^5; mPAP: difference in LS means macitentan-placebo (patients with PoPH; [5]): −5.99 mmHg; mRAP: difference in LS means macitentan-placebo (patients with PoPH; [5]): 1.67 mmHg; PAWP/LVEDP treatment difference based on change from baseline to Week 12 (patients with PoPH; macitentan vs placebo): 2.4 mmHg; Mean PAWP/LVEDP (SD) at Week 12 (patients with PoPH; [6]): 11.4 (4.2) mmHg; PAWP/LVEDP mean (SD) change from baseline at Week 12 (patients with PoPH; [6]): 2.1 (3.7) mmHg; Potency compared with bosentan [1]: higher potency than bosentan
